Test results from patent publication US20250228239A1, “MOLECULES HAVING PESTICIDAL UTILITY, AND INTERMEDIATES, COMPOSITIONS, AND PROCESSES, RELATED THERETO” (priority 2024, published 2025).
Like-named read-outs stand apart in the source and are kept apart here.

Legend:
[1] = test system: Cabbage Looper (Trichoplusia ni, TRIPNI); experiment: Bioassays on Cabbage Looper (CL), 128-well diet tray assay; assay type: in vivo; details: Trichoplusia ni
In short: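 Test molecule was dissolved in 90:10 acetone-water, applied to artificial diet at 50 μg/cm^2 and allowed to dry. Second-instar larvae were then added, one to five per well, and trays held at 25° C for five to seven days before mortality was scored and averaged.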

[2] = test system: Beet Armyworm (Spodoptera exigua, LAPHEG); experiment: Bioassays on Beet Armyworm (BAW), 128-well diet tray assay; assay type: in vivo; details: Spodoptera exigua
In short: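 Mortality of second-instar larvae (1–5/well) on artificial diet treated with 50 μg/cm^2 compound, read after 5–7 days at 25° C.; values are means of eight wells.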

[3] = Cabbage Looper, Table ABC / ABC-DP rating, read-out: CL rating
[4] = Beet Armyworm, Table ABC / ABC-DP rating, read-out: BAW rating
[5] = Table ABC: Biological Results, species CL, read-out: CL
[6] = Table ABC: Biological Results, species BAW, read-out: BAW
[7] = Cabbage Looper, rating class, read-out: CL
[8] = Beet Armyworm, rating class, read-out: BAW

| Compound | pest or weed control at 50 µg/cm2 [1, 3] [%] | pest or weed control at 50 µg/cm2 [2, 4] [%] | pest or weed control at 50 µg/cm2 [1, 7] [%] | pest or weed control at 50 µg/cm2 [2, 8] [%] | further results |
| --- | --- | --- | --- | --- | --- |
| O=C(NNCc1cc(F)ccc1F)c1cc(NC(=O)[C@H]2[C@H](c3cc(Cl)cc(Cl)c3)C2(Cl)Cl)ccc1Cl (relative stereo) [F2546, trans-2,2-Dichloro-N-(4-chloro-3-(2-(2,5-difluorobenzyl)hydrazine-1-carbonyl)phenyl)-3-(3,5-dichlorophenyl)cyclopropane-1-carboxamide] | 50 to 100 | 50 to 100 |  |  |  |
| O=C(Nc1ccc(F)c(NC(=O)C(F)(F)F)c1F)c1cc(NC(=O)[C@H]2[C@H](c3cc(Cl)c(Cl)c(Cl)c3)C2(Cl)Cl)cc(F)c1Cl [F1334, 2-Chloro-5-((1R,3R)-2,2-dichloro-3-(3,4,5-trichlorophenyl)cyclopropane-1-carboxamido)-N-(2,4-difluoro-3-(2,2,2-trifluoroacetamido)phenyl)-3-fluorobenzamide] |  |  |  |  | pest or weed control at 50 µg/cm2 [1, 5]: 50 to 100%; pest or weed control at 50 µg/cm2 [2, 6]: 50 to 100% |
| Nc1c(F)ccc(NC(=O)c2c(Cl)ccc(NC(=O)[C@H]3[C@H](c4ccc(F)c(Cl)c4)C3(Cl)Cl)c2F)c1F [F1508, N-(3-Amino-2,4-difluorophenyl)-6-chloro-3-((1R,3R)-2,2-dichloro-3-(3-chloro-4-fluorophenyl)cyclopropane-1-carboxamido)-2-fluorobenzamide] |  |  | 50 to 100 | 50 to 100 |  |
| Nc1cc(NC(=O)c2cc(NC(=O)[C@H]3[C@H](c4ccc(Cl)c(Cl)c4)C3(Cl)Cl)ccc2F)c(F)cc1F [F1490, N-(5-Amino-2,4-difluorophenyl)-5-((1R,3R)-2,2-dichloro-3-(3,4-dichlorophenyl)cyclopropane-1-carboxamido)-2-fluorobenzamide] |  |  | 50 to 100 | 50 to 100 |  |
| O=C(Nc1ccc(F)c(NC(=O)C(F)F)c1F)c1cc(NC(=O)[C@H]2[C@H](c3ccc(Cl)c(Br)c3)C2(Cl)Cl)ccc1Cl [F1411, 5-((1R,3R)-3-(3-Bromo-4-chlorophenyl)-2,2-dichlorocyclopropane-1-carboxamido)-2-chloro-N-(3-(2,2-difluoroacetamido)-2,4-difluorophenyl)benzamide] |  |  | 50 to 100 | 50 to 100 |  |
| Cc1ccc(C(=O)Nc2c(F)ccc(NC(=O)c3cc(NC(=O)[C@H]4[C@H](c5ccc(F)c(C(F)(F)F)c5)C4(Cl)Cl)ccc3Cl)c2F)s1 [F1302, N-(3-(2-Chloro-5-((1R,3R)-2,2-dichloro-3-(4-fluoro-3-(trifluoromethyl)phenyl)cyclopropane-1-carboxamido)benzamido)-2,6-difluorophenyl)-5-methylthiophene-2-carboxamide] |  |  |  |  | pest or weed control at 50 µg/cm2 [1, 5]: 50 to 100%; pest or weed control at 50 µg/cm2 [2, 6]: 50 to 100% |
| CN(NC(=O)c1cc(NC(=O)[C@H]2[C@H](c3cc(Cl)cc(Cl)c3)C2(Cl)Cl)ccc1Cl)C(=O)CC(F)(F)F (relative stereo) [F2533, trans-2,2-Dichloro-N-(4-chloro-3-(2-methyl-2-(3,3,3-trifluoropropanoyl)hydrazine-1-carbonyl)phenyl)-3-(3,5-dichlorophenyl)cyclopropane-1-carboxamide] | 50 to 100 | 50 to 100 |  |  |  |
| O=C(Nc1c(F)ccc(NC(=O)c2cc(NC(=O)[C@H]3[C@H](c4ccc(F)c(C(F)(F)F)c4)C3(Cl)Cl)ccc2Cl)c1F)c1ccc(F)nc1 [F1258, N-(3-(2-Chloro-5-((1R,3R)-2,2-dichloro-3-(4-fluoro-3-(trifluoromethyl)phenyl)cyclopropane-1-carboxamido)benzamido)-2,6-difluorophenyl)-6-fluoronicotinamide] |  |  |  |  | pest or weed control at 50 µg/cm2 [1, 5]: 50 to 100%; pest or weed control at 50 µg/cm2 [2, 6]: 50 to 100% |
| C=C(F)c1cc(F)cc(F)c1NC(=O)c1cc(NC(=O)[C@H]2[C@H](c3cc(Cl)cc(Cl)c3)C2(Cl)Cl)ccc1Cl (relative stereo) [F1322, trans-2-Chloro-5-(2,2-dichloro-3-(3,5-dichlorophenyl)cyclopropane-1-carboxamido)-N-(2,4-difluoro-6-(1-fluorovinyl)phenyl)benzamide] |  |  |  |  | pest or weed control at 50 µg/cm2 [1, 5]: 50 to 100%; pest or weed control at 50 µg/cm2 [2, 6]: 50 to 100% |
| CCNC(=O)c1cc(NC(=O)[C@H]2[C@H](c3ccc(F)c(Cl)c3)C2(Cl)Cl)cc(Cl)c1C (relative stereo) [F2041, trans-3-Chloro-5-(2,2-dichloro-3-(3-chloro-4-fluorophenyl)cyclopropane-1-carboxamido)-N-ethyl-2-methylbenzamide] | 50 to 100 | 50 to 100 |  |  |  |
| O=C(NNc1ccccc1)c1cc(NC(=O)[C@H]2[C@H](c3cc(Cl)cc(Cl)c3)C2(Cl)Cl)ccc1Cl (relative stereo) [F2556, trans-2,2-Dichloro-N-(4-chloro-3-(2-phenylhydrazine-1-carbonyl)phenyl)-3-(3,5-dichlorophenyl)cyclopropane-1-carboxamide] | 50 to 100 | 50 to 100 |  |  |  |
| CC(C)(C)OC(=O)NNC(=O)c1cc(NC(=O)[C@H]2[C@H](c3cc(Cl)cc(Cl)c3)C2(Cl)Cl)ccc1Cl (relative stereo) [F2566, trans-tert-butyl 2-(2-chloro-5-(2,2-dichloro-3-(3,5-dichlorophenyl)cyclopropane-1-carboxamido)benzoyl)hydrazine-1-carboxylate] | 50 to 100 | 50 to 100 |  |  | mortality at 50 µg/cm2 ([1]; 168 h, second instar larvae, 50 μg/cm^2 of test molecule on artificial diet, 25° C., five to seven days, average of eight wells, read-out: CL % Control (or Mortality) rating): 50 to 100%; mortality at 50 µg/cm2 ([2]; 168 h, second instar larvae, 50 μg/cm^2 of test molecule on artificial diet, 25° C., five to seven days, average of eight wells, read-out: BAW % Control (or Mortality) rating): 50 to 100% |
| CCO[C@H](C)C(=O)Nc1c(F)ccc(NC(=O)c2cc(NC(=O)[C@H]3[C@H](c4ccc(F)c(C(F)(F)F)c4)C3(Cl)Cl)ccc2Cl)c1F [F1732, 2-Chloro-5-((1R,3R)-2,2-dichloro-3-(4-fluoro-3-(trifluoromethyl)phenyl)cyclopropane-1-carboxamido)-N-(3-((R)-2-ethoxypropanamido)-2,4-difluorophenyl)benzamide] |  |  | 50 to 100 | 50 to 100 |  |
| Nc1c(F)cccc1NC(=O)c1cc(NC(=O)[C@H]2[C@H](c3ccc(F)c(Cl)c3)C2(Cl)Cl)ccc1Cl [F1133, N-(2-Amino-3-fluorophenyl)-2-chloro-5-((1R,3R)-2,2-dichloro-3-(3-chloro-4-fluorophenyl)cyclopropane-1-carboxamido)benzamide] |  |  |  |  | pest or weed control at 50 µg/cm2 [1, 5]: 50 to 100%; pest or weed control at 50 µg/cm2 [2, 6]: 50 to 100% |
| Cc1cc(NC(=O)[C@H]2[C@H](c3cc(Cl)c(Cl)c(Cl)c3)C2(Cl)Cl)cc(C(=O)Nc2cc(N)c(F)cc2F)c1Cl [F1477, N-(5-Amino-2,4-difluorophenyl)-2-chloro-5-((1R,3R)-2,2-dichloro-3-(3,4,5-trichlorophenyl)cyclopropane-1-carboxamido)-3-methylbenzamide] |  |  | 50 to 100 | 50 to 100 |  |
| O=C(CCC(F)(F)C(F)(F)F)Nc1c(F)ccc(NC(=O)c2cc(NC(=O)[C@H]3[C@H](c4ccc(Cl)c(Cl)c4)C3(Cl)Cl)ccc2Cl)c1F [F1861, 2-Chloro-5-((1R,3R)-2,2-dichloro-3-(3,4-dichlorophenyl)cyclopropane-1-carboxamido)-N-(2,4-difluoro-3-(4,4,5,5,5-pentafluoropentanamido)phenyl) benzamide] | 50 to 100 | 50 to 100 |  |  |  |
| CCO[C@@H](C)C(=O)Nc1c(F)ccc(NC(=O)c2cc(NC(=O)[C@H]3[C@H](c4ccc(F)c(C(F)(F)F)c4)C3(Cl)Cl)ccc2Cl)c1F [F1731, 2-Chloro-5-((1R,3R)-2,2-dichloro-3-(4-fluoro-3-(trifluoromethyl)phenyl)cyclopropane-1-carboxamido)-N-(3-((S)-2-ethoxypropanamido)-2,4-difluorophenyl)benzamide] |  |  | 50 to 100 | 50 to 100 |  |
| O=C(Nc1ccc(F)c(NC(=O)C(F)F)c1F)c1cc(NC(=O)[C@H]2[C@H](c3ccc(F)c(I)c3)C2(Cl)Cl)ccc1Cl (relative stereo) [F1624, trans-2-Chloro-5-(2,2-dichloro-3-(4-fluoro-3-iodophenyl)cyclopropane-1-carboxamido)-N-(3-(2,2-difluoroacetamido)-2,4-difluorophenyl)benzamide] |  |  | 50 to 100 | 50 to 100 |  |
| O=C(Nc1cc(NC(=O)C(F)F)c(F)cc1F)c1cc(NC(=O)[C@H]2[C@H](c3ccc(Cl)c(Cl)c3)C2(Cl)Cl)ccc1F [F1509, 5-((1R,3R)-2,2-Dichloro-3-(3,4-dichlorophenyl)cyclopropane-1-carboxamido)-N-(5-(2,2-difluoroacetamido)-2,4-difluorophenyl)-2-fluorobenzamide] |  |  | 50 to 100 | 50 to 100 |  |
| O=C(NCC(F)(F)C(F)(F)F)c1cc(NC(=O)[C@H]2[C@H](c3ccc(F)c(Cl)c3)C2(Cl)Cl)cc(Cl)c1F (relative stereo) [F2046, trans-3-Chloro-5-(2,2-dichloro-3-(3-chloro-4-fluorophenyl)cyclopropane-1-carboxamido)-2-fluoro-N-(2,2,3,3,3-pentafluoropropyl)benzamide] | 50 to 100 | 50 to 100 |  |  |  |
| CC(C)(C)OC(=O)Nc1c(F)ccc(NC(=O)c2cc(NC(=O)[C@H]3[C@H](c4ccc(Br)c(C(F)(F)F)c4)C3(Cl)Cl)ccc2Cl)c1F (relative stereo) [F1115, trans-tert-Butyl-(3-(5-(3-(4-bromo-3-(trifluoromethyl)phenyl)-2,2-dichlorocyclopropane-1-carboxamido)-2-chlorobenzamido)-2,6-difluorophenyl)carbamate] |  |  |  |  | pest or weed control at 50 µg/cm2 [1, 5]: 50 to 100%; pest or weed control at 50 µg/cm2 [2, 6]: 50 to 100% |
